Experiments:
[1] = Treatment emergent adverse events in opioid-dependent participants (Phase IB)
[2] = Pupillometry and cold pressor test in healthy volunteers; format: in vivo, human; details: 3-60 mg single oral dose
Procedure: Pulse oximetry and capnography data were collected continuously using a GE Carescape B650 monitoring system from 2 hours prior to dosing and until six hours after dosing, and thereafter at 12, 24, 48 and 72 hours post-dosing. Additional oximetry data were collected at 120, 168 and 216 hours. Pupillary miosis was assessed by pupillometry. Dark-adapted pupil diameter was measured in triplicate using a Neuroptics PLR-200 pupillometer under standardized light intensity (<5 lux) pre-dose, and at 2, 4, 6, 12, 24, 48, 72, 96, 120, 168 and 216 hours post-dosing.
Summary statistics (means, standard deviations, and coefficients of variation) were determined for each dose group for safety laboratory test data, ECG and pharmacokinetic parameters, and pharmacodynamic variables. Categorical variables were analysed using counts and percentages. Dose-proportionality of AUC and Cmax was assessed using linear regression. The effect of dose on pharmacodynamic parameter values over time was assessed using two-factor analysis of variance (ANOVA). […]
Analgesic effect was assessed based on duration of hand immersion in ice water and on visual analog scale (VAS) pain scores upon hand removal from the water bath. […]

[3] = 60 mg single dose, opioid-dependent patients, N = 6, events:subjects (%)
[4] = 120 mg single dose, opioid-dependent patients, N = 6, events:subjects (%)
[5] = 180 mg single dose, opioid-dependent patients, N = 6, events:subjects (%)

SMILES: CC[C@H]1CC2C[C@H]3c4[nH]c5ccc(O)cc5c4CCN(C2)C13 [Noribogaine]
- TEAE: Catheter Site Infection [1, 3]: 0
- TEAE: Catheter Site Pain [1, 3]: 0
- TEAE: Catheter Site Related Reaction [1, 3]: 0
- TEAE: Cellulitis [1, 3]: 0
- TEAE: Diarrhoea [1, 3]: 0
- TEAE: Dry Mouth [1, 3]: 0
- TEAE: Ear and Labyrinth Disorders [1, 3]: 0
- TEAE: Epistaxis [1, 3]: 0
- TEAE: Euphoric Mood [1, 3]: 0
- TEAE: General Disorders and Administration Site Conditions [1, 3]: 0
- TEAE: Hyperaesthesia [1, 3]: 0
- TEAE: Infections and Infestations [1, 3]: 0
- TEAE: Limb Discomfort [1, 3]: 0
- TEAE: Malaise [1, 3]: 0
- TEAE: Nausea [1, 3]: 0
- TEAE: Oropharyngeal Pain [1, 3]: 0
- TEAE: Pseudoparalysis [1, 3]: 0
- TEAE: Respiratory, Thoracic and Mediastinal Disorders [1, 3]: 0
- TEAE: Rhinorrhoea [1, 3]: 0
- TEAE: Skin Discomfort [1, 3]: 0
- TEAE: Skin Irritation [1, 3]: 0
- TEAE: Skin and Subcutaneous Tissue Disorders [1, 3]: 0
- TEAE: Somnoience [1, 3]: 0
- TEAE: Tinnitus [1, 3]: 0
- TEAE: Tremor [1, 3]: 0
- TEAE: Urinary Tract Infection [1, 3]: 0
- TEAE: Vomiting [1, 3]: 0
- TEAE: Back Pain [1, 4]: 0
- TEAE: Catheter Site Infection [1, 4]: 0
- TEAE: Catheter Site Related Reaction [1, 4]: 0
- TEAE: Depressed Mood [1, 4]: 0
- TEAE: Dry Eye [1, 4]: 0
- TEAE: Dyspepsia [1, 4]: 0
- TEAE: Euphoric Mood [1, 4]: 0
- TEAE: Limb Discomfort [1, 4]: 0
- TEAE: Malaise [1, 4]: 0
- TEAE: Musculoskeletal and Connective Tissue Disorders [1, 4]: 0
- TEAE: Psychiatric Disorders [1, 4]: 0
- TEAE: Somnoience [1, 4]: 0
- TEAE: Urinary Tract Infection [1, 4]: 0
- TEAE: Catheter Site Infection [1, 5]: 0
- TEAE: Catheter Site Pain [1, 5]: 0
- TEAE: Depressed Mood [1, 5]: 0
- TEAE: Diarrhoea [1, 5]: 0
- TEAE: Dry Eye [1, 5]: 0
- TEAE: Dyspepsia [1, 5]: 0
- TEAE: Ear and Labyrinth Disorders [1, 5]: 0
- TEAE: Epistaxis [1, 5]: 0
- TEAE: Euphoric Mood [1, 5]: 0
- TEAE: Hyperaesthesia [1, 5]: 0
- TEAE: Malaise [1, 5]: 0
- TEAE: Oropharyngeal Pain [1, 5]: 0
- TEAE: Pseudoparalysis [1, 5]: 0
- TEAE: Psychiatric Disorders [1, 5]: 0
- TEAE: Respiratory, Thoracic and Mediastinal Disorders [1, 5]: 0
- TEAE: Rhinorrhoea [1, 5]: 0
- TEAE: Skin Discomfort [1, 5]: 0
- TEAE: Skin Irritation [1, 5]: 0
- TEAE: Skin and Subcutaneous Tissue Disorders [1, 5]: 0
- TEAE: Somnoience [1, 5]: 0
- TEAE: Tinnitus [1, 5]: 0
- TEAE: Tremor [1, 5]: 0
- hallucinatory effects ([1]; 60, 120, 180 mg single dose, opioid-dependent participants): no hallucinatory effects
- analgesic effect in the cold pressor test ([2]; hand immersion duration and VAS pain scores): no analgesic effect
- pupillary constriction (pupillometry, dark-adapted pupil diameter) ([2]; vs placebo): no evidence of pupillary constriction
